We go through three compounds from patent US6649745B2 (priority 2002, dated 2003).

Assay [1] concerns immunecompromised mice. The assay is classed as in vivo. To be noted: for Antibody titer % change compared to control / Antibody titer mean ± S.E.: titre on 5th day; for Antibody titer mean ± S.E.: n=12.
Assay [2] has as its system immunecompromised mice. The assay is classed as in vivo. As to conditions: for DTH mean ± S.E.: n=12.
The mark [3] stands for this setting: 0.0006 mg/kg p.o., day 0-4, immunecompromised mice.
Where [4] appears, read: 0.0125 mg/kg p.o., day 0-4, immunecompromised mice.
The mark [5] stands for this setting: oral, dose levels 0.0062-0.0125 mg Kg^-1, immunecompromised experimental animals.
[6] abbreviates: 0.0006 mg/kg p.o., day 0-4, immunecompromised mice, foot thickness on 5th day.
Setting [7] is: 0.0125 mg/kg p.o., day 0-4, immunecompromised mice, foot thickness on 5th day.
The mark [8] stands for this setting: 2.5 mg/kg p.o., day 0-4, immunecompromised mice.
[9] abbreviates: 2.5 mg/kg p.o., day 0-4, immunecompromised mice, foot thickness on 5th day.
Setting [10] is: 250 mg/kg p.o., day 0-4, SRBC-sensitized mice.

Read-outs that look alike come from different tables or passages of the source. Marks after values point to notes of the source that are not given here.

As to “3-0-[α-L-rhamnopyranosyl-(1→2)-α-L-rhamnopyranosyl-(1→4)-0-β-D-glucopyranosyl]-25(S)-5β-spirostan-3β-ol [AR-Iv]”, in the assay on immunecompromised mice [1] (setting [3]), the “Antibody titer % change compared to control” value (shortened to “Antibody titer % change”) is recorded as 56** % and the “Antibody titer mean ± S.E.” value is given as 5.60 ± 0.33. Moreover, in the assay with immunecompromised mice [1] (setting [4]), the “Antibody titer % change” value was 78*** % and the “Antibody titer mean ± S.E.” value was determined as 6.41 ± 0.16. Also, the “potentiation of antibody synthesis” value in the assay on immunecompromised mice [1] (setting [5]) was 55.55-69.44%. Further, in the assay on immunecompromised mice [2] (setting [6]), the “DTH % change compared to control” value is 78*** % and the “DTH mean ± S.E.” value amounted to 0.80 ± 0.14. Also, in the assay with immunecompromised mice [2] (setting [7]), the “DTH % change compared to control” value was 102*** % and the “DTH mean ± S.E.” value worked out at 0.91 ± 0.42. Also, the “enhancement of cell-mediated immune response” value in the assay with immunecompromised mice [2] (setting [5]) is given as 77.77-102.22%.
For `c1ccc([C@H]2CN3CCSC3=N2)cc1` [LEV, Levamisole, reference compound], in the assay on immunecompromised mice [1] (setting [8]), the “Antibody titer % change” value was 89*** % and the “Antibody titer mean ± S.E.” value was 6.80 ± 0.30. For the same compound, in the assay with immunecompromised mice [2] (setting [9]), the “DTH % change compared to control” value is 140*** % and the “DTH mean ± S.E.” value is on record as 1.08 ± 0.14.
As to Cyclodextrin [reference compound], in the assay with immunecompromised mice [1] (setting [10]), the “Antibody titer % change” value is 45* % and the “Antibody titer mean ± S.E.” value was 3.60 ± 0.33. The “DTH mean ± S.E.” value in the assay with immunecompromised mice [2] (250 mg/kg p.o., day 0-4, SRBC challenge in footpad on 4th day, foot thickness on 5th day) is listed as 0.45 ± 0.24. Besides, the “DTH % change compared to control” value in the assay on immunecompromised mice [2] (250 mg/kg p.o., day 0-4, foot thickness on 5th day) is listed as 23* %.
